Source: ChEMBL document CHEMBL4385652, “Discovery of a novel orally active TRPV4 inhibitor: Part 1. Optimization from an HTS hit” (Bioorg Med Chem, 2019)

Assays:
physchem = conditions: 1-octanol/phosphate buffer, pH 7.4
in vitro [1] = conditions: rat, pooled liver microsomes
in vitro [2] = conditions: human, pooled liver microsomes

| Structure (SMILES) | logD (physchem) | CLint scaled at 0.75 h, 0.2 µM (in vitro [1]) | CLint scaled at 0.75 h, 0.2 µM (in vitro [2]) |
| --- | --- | --- | --- |
| COc1cc(OC)cc(C(=O)Nc2nc(-c3ccccc3)c(CCCN3CCOCC3)s2)c1 | 4.7 | – | – |
| Cc1c(C(=O)Nc2nc(C3CCC3)c(CCN3CCCCC3)s2)cnn1-c1ccc(F)cc1 | 4.1 | > 1000 mL/min/kg | 527 mL/min/kg |
| Cc1c(C(=O)Nc2nc(C3CCC3)c(N3CCN(C)CC3)s2)cnn1C1CCC(F)(F)CC1 | 4.3 | – | – |
| COc1cc(OC)cc(C(=O)Nc2nc(-c3ccccc3)c(CCCN3CCCCC3)s2)c1 | 4.1 | – | – |
| Cc1c(C(=O)Nc2nc(C3CCC3)c(N3CCN(C)CC3)s2)cnn1-c1ccc(F)cc1 | 4.8 | – | – |
| Cc1nn(-c2ccc(F)cn2)cc1C(=O)Nc1nc(C2CCC2)c(CCN2CCCCC2)s1 | 4.5 | 798 mL/min/kg | 120 mL/min/kg |
| Cc1c(C(=O)Nc2nc(C3CCC3)c(N3CCN(C)CC3)s2)cnn1-c1ccc(C#N)cc1 | 4 | – | – |
| CN1CCN(c2sc(NC(=O)c3cc(-c4ccccc4)n(C)n3)nc2C2CCC2)CC1 | 4.9 | – | – |
| COc1cc(OC)cc(C(=O)Nc2nc(-c3ccccc3)c(CCCN(C)C)s2)c1 | 3.5 | – | – |

Next, values leading:

| logD (physchem) | CLint scaled at 0.75 h, 0.2 µM (in vitro [1]) | CLint scaled at 0.75 h, 0.2 µM (in vitro [2]) | Structure (SMILES) |
| --- | --- | --- | --- |
| 4.9 | – | – | COc1cc(OC)cc(C(=O)Nc2nc(-c3ccccc3)c(CN3CCCCC3)s2)c1 |
| 4.1 | – | – | COc1cc(OC)cc(C(=O)Nc2nc(-c3ccncc3)c(N3CCN(C)CC3)s2)c1 |
| 4.6 | – | – | COc1cc(OC)cc(C(=O)Nc2nc(C3CCC3)c(N3CCN(C)CC3)s2)c1 |
| 3.7 | – | – | COc1cc(OC)cc(C(=O)Nc2nc(-c3ccccn3)c(N3CCN(C)CC3)s2)c1 |
| 4.1 | – | – | COc1cc(OC)cc(C(=O)Nc2nc(-c3ccccc3)c(CCCN3CCN(C)CC3)s2)c1 |
| 4 | – | – | COc1cc(OC)cc(C(=O)Nc2nc(C3CC3)c(N3CCN(C)CC3)s2)c1 |
| 4.1 | – | – | COc1cc(OC)cc(C(=O)Nc2nc(-c3cccnc3)c(N3CCN(C)CC3)s2)c1 |
| 3.6 | – | – | COc1cc(OC)cc(C(=O)Nc2nc(-c3ccccc3)c(C3CCN(C)CC3)s2)c1 |
